Source: patent US20240158446A1, “CYCLIC COMPOUND HAVING SELECTIVE INHIBITORY ACTION ON KRAS OVER HRAS AND NRAS” (CHUGAI SEIYAKU KABUSHIKI KAISHA, priority 2021, published 2024)

Experiments:
[1] = target: GDP-bound NRAS wild-type protein (Homo sapiens, UniProt P01111); experiment: Binding to NRAS by surface plasmon resonance (SPR), Single Cycle Kinetics; conditions: SPR, GDP-bound NRAS wild-type protein vs GDP-bound KRAS wild-type protein
[2] = target: GDP-bound KRAS wild-type protein (Homo sapiens, UniProt P01116); experiment: Binding to KRAS by surface plasmon resonance (SPR), Single Cycle Kinetics; conditions: SPR, Single Cycle Kinetics, GDP-bound KRAS wild-type protein; read-out: KRAS KD
[3] = target: GDP-bound HRAS wild-type protein (Homo sapiens, UniProt P01112); experiment: Binding to HRAS by surface plasmon resonance (SPR), Single Cycle Kinetics; conditions: SPR, GDP-bound HRAS wild-type protein vs GDP-bound KRAS wild-type protein
GDP-bound HRAS wild-type protein, sequence (P01112 whole entry): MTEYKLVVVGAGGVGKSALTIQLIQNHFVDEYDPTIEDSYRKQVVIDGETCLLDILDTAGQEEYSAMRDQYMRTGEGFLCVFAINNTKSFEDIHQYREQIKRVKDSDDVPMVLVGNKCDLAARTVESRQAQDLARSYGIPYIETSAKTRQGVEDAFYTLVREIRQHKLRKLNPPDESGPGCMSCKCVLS

GDP-bound NRAS wild-type protein, sequence (P01111 whole entry): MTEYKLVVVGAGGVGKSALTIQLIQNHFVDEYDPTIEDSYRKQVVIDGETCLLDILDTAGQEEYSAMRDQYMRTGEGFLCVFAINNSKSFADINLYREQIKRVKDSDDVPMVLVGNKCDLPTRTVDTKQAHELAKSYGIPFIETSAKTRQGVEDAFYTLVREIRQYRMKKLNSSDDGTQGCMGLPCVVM
GDP-bound KRAS wild-type protein, sequence (P01116 whole entry): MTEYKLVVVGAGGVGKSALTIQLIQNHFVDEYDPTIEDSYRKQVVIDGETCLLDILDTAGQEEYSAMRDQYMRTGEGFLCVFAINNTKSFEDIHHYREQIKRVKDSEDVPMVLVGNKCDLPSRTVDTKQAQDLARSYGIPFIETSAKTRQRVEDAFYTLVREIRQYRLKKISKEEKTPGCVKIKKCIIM

| Compound | NRAS/KRAS (ratio of KD value for NRAS to KD value for KRAS) [1] | Kd [2] [nM] | HRAS/KRAS (ratio of KD value for HRAS to KD value for KRAS) [3] |
| --- | --- | --- | --- |
| CCO[C@@H]1C[C@H]2C(=O)NC3(CC(C)(C)C3)C(=O)N(C)[C@@H](C(CC)CC)C(=O)N(C)[C@H](C(=O)N3CCCC3)CC(=O)N(C)[C@@H](C)C(=O)N[C@@H]([C@@H](C)CC)C(=O)N(C)CC(=O)N(C)[C@H]3C/C=C\CCN(C3=O)[C@@H](Cc3ccc(C(F)(F)F)cc3)C(=O)N(C)CC(=O)N[C@@H](CCc3ccc(C(F)(F)F)c(OC)c3)C(=O)N2C1 [PP2163] | A (a compound having 10 or more and less than 20 is denoted as A) | 0.41 | A (a compound having 10 or more and less than 20 is denoted as A) |
| CCO[C@@H]1C[C@H]2C(=O)NC3(CC(C)(C)C3)C(=O)N(C)[C@@H](C(CC)CC)C(=O)N(C)[C@H](C(=O)N(C)C)CC(=O)N(C)[C@@H](CC3CCC3)C(=O)N[C@@H]([C@@H](C)CC)C(=O)N(C)CC(=O)N(C)[C@H]3C/C=C\CCN(C3=O)[C@@H](Cc3ccc(C(F)(F)F)cc3)C(=O)N(C)CC(=O)N[C@@H](CCc3ccc(C(F)(F)F)c(OC)c3)C(=O)N2C1 [PP2164] | A (a compound having 10 or more and less than 20 is denoted as A) | 0.29 | A (a compound having 10 or more and less than 20 is denoted as A) |
| CCO[C@@H]1C[C@H]2C(=O)NC3(CC(C)(C)C3)C(=O)N(C)[C@@H](C(CC)CC)C(=O)N(C)[C@H](C(=O)N(C)C)CC(=O)N(C)[C@@H](C(C)C)C(=O)N[C@@H]([C@@H](C)CC)C(=O)N(C)CC(=O)N(C)[C@H]3C/C=C\CCN(C3=O)[C@@H](Cc3ccc(C(F)(F)F)cc3)C(=O)N(C)CC(=O)N[C@@H](CCc3ccc(C(F)(F)F)c(OC)c3)C(=O)N2C1 [PP2165] | A (a compound having 10 or more and less than 20 is denoted as A) | 0.51 | A (a compound having 10 or more and less than 20 is denoted as A) |
| CCO[C@@H]1C[C@H]2C(=O)NC3(CC(C)(C)C3)C(=O)N(C)[C@@H](C(CC)CC)C(=O)N(C)[C@H](C(=O)N(C)C)CC(=O)N(C)[C@@H](CC3CC3)C(=O)N[C@@H]([C@@H](C)CC)C(=O)N(C)CC(=O)N(C)[C@H]3C/C=C\CCN(C3=O)[C@@H](Cc3ccc(C)cc3)C(=O)N(C)CC(=O)N[C@@H](CCc3ccc(C(F)(F)F)c(OC)c3)C(=O)N2C1 [PP2166] | A (a compound having 10 or more and less than 20 is denoted as A) | 0.29 | A (a compound having 10 or more and less than 20 is denoted as A) |
| CCO[C@@H]1C[C@H]2C(=O)NC3(CC(C)(C)C3)C(=O)N(C)[C@@H](C(CC)CC)C(=O)N(C)[C@H](C(=O)N3CCCC3)CC(=O)N(C)[C@@H](COC)C(=O)N[C@@H]([C@@H](C)CC)C(=O)N(C)CC(=O)N(C)[C@H]3C/C=C\CCN(C3=O)[C@@H](Cc3ccc(C)cc3)C(=O)N(C)CC(=O)N[C@@H](CCc3ccc(C(F)(F)F)c(OC)c3)C(=O)N2C1 [PP2167] | AA (a compound having 20 or more is denoted as AA) | 0.71 | A (a compound having 10 or more and less than 20 is denoted as A) |
| CCO[C@@H]1C[C@H]2C(=O)NC3(CC(C)(C)C3)C(=O)N(C)[C@@H](C(CC)CC)C(=O)N(C)[C@H](C(=O)N(C)C)CC(=O)N(C)[C@@H](CC(C)C)C(=O)N[C@@H]([C@@H](C)CC)C(=O)N(C)CC(=O)N(C)[C@H]3C/C=C\CCN(C3=O)[C@@H](Cc3ccc(C)cc3)C(=O)N(C)CC(=O)N[C@@H](CCc3ccc(C(F)(F)F)c(OC)c3)C(=O)N2C1 [PP2168] | A (a compound having 10 or more and less than 20 is denoted as A) | 0.33 | A (a compound having 10 or more and less than 20 is denoted as A) |
| CCO[C@@H]1C[C@H]2C(=O)NC3(CC(C)(C)C3)C(=O)N(C)[C@@H](C(CC)CC)C(=O)N(C)[C@H](C(=O)N3CCCC3)CC(=O)N(C)[C@@H](C)C(=O)N[C@@H]([C@@H](C)CC)C(=O)N(C)CC(=O)N(C)[C@H]3C/C=C\CCN(C3=O)[C@@H](Cc3ccc(C)cc3)C(=O)N(C)CC(=O)N[C@@H](CCc3ccc(C(F)(F)F)c(OC)c3)C(=O)N2C1 [PP2169] | AA (a compound having 20 or more is denoted as AA) | 0.63 | A (a compound having 10 or more and less than 20 is denoted as A) |
| CCO[C@@H]1C[C@H]2C(=O)NC3(CC(C)(C)C3)C(=O)N(C)[C@@H](C(CC)CC)C(=O)N(C)[C@H](C(=O)N(C)C)CC(=O)N(C)[C@@H](CC)C(=O)N[C@@H]([C@@H](C)CC)C(=O)N(C)CC(=O)N(C)[C@H]3C/C=C\CCN(C3=O)[C@@H](Cc3ccc(C)cc3)C(=O)N(C)CC(=O)N[C@@H](CCc3ccc(C(F)(F)F)c(OC)c3)C(=O)N2C1 [PP2170] | A (a compound having 10 or more and less than 20 is denoted as A) | 0.33 | A (a compound having 10 or more and less than 20 is denoted as A) |
| CCO[C@@H]1C[C@H]2C(=O)NC3(CC(C)(C)C3)C(=O)N(C)[C@@H](C(CC)CC)C(=O)N(C)[C@H](C(=O)N3CCCC3)CC(=O)N(C)[C@@H](CC)C(=O)N[C@@H]([C@@H](C)CC)C(=O)N(C)CC(=O)N(C)[C@H]3C/C=C\CCN(C3=O)[C@@H](Cc3ccc(C)cc3)C(=O)N(C)CC(=O)N[C@@H](CCc3ccc(C(F)(F)F)c(OC)c3)C(=O)N2C1 [PP2171] | A (a compound having 10 or more and less than 20 is denoted as A) | 0.75 | A (a compound having 10 or more and less than 20 is denoted as A) |
| CCO[C@@H]1C[C@H]2C(=O)NC3(CC(C)(C)C3)C(=O)N(C)[C@@H](C(CC)CC)C(=O)N(C)[C@H](C(=O)N(C)C)CC(=O)N(C)[C@@H](CC3CCC3)C(=O)N[C@@H]([C@@H](C)CC)C(=O)N(C)CC(=O)N(C)[C@H]3C/C=C\CCN(C3=O)[C@@H](Cc3ccc(C)cc3)C(=O)N(C)CC(=O)N[C@@H](CCc3ccc(C(F)(F)F)c(OC)c3)C(=O)N2C1 [PP2172] | A (a compound having 10 or more and less than 20 is denoted as A) | 0.51 | B (a compound having 3 or more and less than 10 is denoted as B) |
| CCO[C@@H]1C[C@H]2C(=O)NC3(CC(C)(C)C3)C(=O)N(C)[C@@H](C(CC)CC)C(=O)N(C)[C@H](C(=O)N(C)C)CC(=O)N(C)[C@@H](C(C)C)C(=O)N[C@@H]([C@@H](C)CC)C(=O)N(C)CC(=O)N(C)[C@H]3C/C=C\CCN(C3=O)[C@@H](Cc3ccc(C)cc3)C(=O)N(C)CC(=O)N[C@@H](CCc3ccc(C(F)(F)F)c(OC)c3)C(=O)N2C1 [PP2173] | A (a compound having 10 or more and less than 20 is denoted as A) | 0.55 | A (a compound having 10 or more and less than 20 is denoted as A) |
| CCO[C@@H]1C[C@H]2C(=O)NC3(CC(C)(C)C3)C(=O)N(C)[C@@H](C(CC)CC)C(=O)N(C)[C@H](C(=O)N3CCCC3)CC(=O)N(C)[C@@H](COC)C(=O)N[C@@H]([C@@H](C)CC)C(=O)N(C)CC(=O)N(C)[C@H]3C/C=C\CCN(C3=O)[C@@H](Cc3ccc(C(F)(F)F)cc3)C(=O)N(C)CC(=O)N[C@@H](CCc3ccc(Cl)c(Cl)c3)C(=O)N2C1 [PP2174] | AA (a compound having 20 or more is denoted as AA) | 0.4 | A (a compound having 10 or more and less than 20 is denoted as A) |
| CCO[C@@H]1C[C@H]2C(=O)NC3(CC(C)(C)C3)C(=O)N(C)[C@@H](C(CC)CC)C(=O)N(C)[C@H](C(=O)N(C)C)CC(=O)N(C)[C@@H](CC(C)C)C(=O)N[C@@H]([C@@H](C)CC)C(=O)N(C)CC(=O)N(C)[C@H]3C/C=C\CCN(C3=O)[C@@H](Cc3ccc(C(F)(F)F)cc3)C(=O)N(C)CC(=O)N[C@@H](CCc3ccc(Cl)c(Cl)c3)C(=O)N2C1 [PP2176] | AA (a compound having 20 or more is denoted as AA) | 0.47 | A (a compound having 10 or more and less than 20 is denoted as A) |
| CCO[C@@H]1C[C@H]2C(=O)NC3(CC(C)(C)C3)C(=O)N(C)[C@@H](C(CC)CC)C(=O)N(C)[C@H](C(=O)N3CCCC3)CC(=O)N(C)[C@@H](C)C(=O)N[C@@H]([C@@H](C)CC)C(=O)N(C)CC(=O)N(C)[C@H]3C/C=C\CCN(C3=O)[C@@H](Cc3ccc(C(F)(F)F)cc3)C(=O)N(C)CC(=O)N[C@@H](CCc3ccc(Cl)c(Cl)c3)C(=O)N2C1 [PP2178] | AA (a compound having 20 or more is denoted as AA) | 0.49 | A (a compound having 10 or more and less than 20 is denoted as A) |
| CCO[C@@H]1C[C@H]2C(=O)NC3(CC(C)(C)C3)C(=O)N(C)[C@@H](C(CC)CC)C(=O)N(C)[C@H](C(=O)N(C)C)CC(=O)N(C)[C@@H](CC3CCC3)C(=O)N[C@@H]([C@@H](C)CC)C(=O)N(C)CC(=O)N(C)[C@H]3C/C=C\CCN(C3=O)[C@@H](Cc3ccc(C(F)(F)F)cc3)C(=O)N(C)CC(=O)N[C@@H](CCc3ccc(Cl)c(Cl)c3)C(=O)N2C1 [PP2180] | AA (a compound having 20 or more is denoted as AA) | 0.66 | A (a compound having 10 or more and less than 20 is denoted as A) |
| CCO[C@@H]1C[C@H]2C(=O)NC3(CC(C)(C)C3)C(=O)N(C)[C@@H](C(CC)CC)C(=O)N(C)[C@H](C(=O)N(C)C)CC(=O)N(C)[C@@H](C(C)C)C(=O)N[C@@H]([C@@H](C)CC)C(=O)N(C)CC(=O)N(C)[C@H]3C/C=C\CCN(C3=O)[C@@H](Cc3ccc(C(F)(F)F)cc3)C(=O)N(C)CC(=O)N[C@@H](CCc3ccc(Cl)c(Cl)c3)C(=O)N2C1 [PP2181] | AA (a compound having 20 or more is denoted as AA) | 1.4 | A (a compound having 10 or more and less than 20 is denoted as A) |
